The source made the active and inactive calls. No cut-off for these calls is given here.
Legend:
[1] = Antiproliferative activity against human MCF10A cells assessed as inhibition of cell proliferation incubated for 72 hrs by CCK8 assay; assay type: cell-based, MCF-10A
[2] = test system: MCF7; assay: Antiproliferative activity against human MCF7 cells assessed as inhibition of cell proliferation incubated for 6 days by CCK8 assay; assay type: functional, cell-based; settings: MCF7, 144 h
[3] = test system: K562; assay: Antiproliferative activity against human K562 cells assessed as inhibition of cell proliferation incubated for 72 hrs by CCK8 assay; assay type: functional, cell-based; settings: for GI50: K562, 72 h
[4] = target: T1, Geranylgeranyl transferase type-2 (Homo sapiens, UniProt P53611+Q92696); assay: Inhibition of RabGGTase (unknown origin) using YPTI as substrate protein and [3H]geranylgeranyl pyrophosphate incubated for 20 mins by scintillation counting assay; assay type: protein-complex assay
T1 sequence (P53611 whole entry): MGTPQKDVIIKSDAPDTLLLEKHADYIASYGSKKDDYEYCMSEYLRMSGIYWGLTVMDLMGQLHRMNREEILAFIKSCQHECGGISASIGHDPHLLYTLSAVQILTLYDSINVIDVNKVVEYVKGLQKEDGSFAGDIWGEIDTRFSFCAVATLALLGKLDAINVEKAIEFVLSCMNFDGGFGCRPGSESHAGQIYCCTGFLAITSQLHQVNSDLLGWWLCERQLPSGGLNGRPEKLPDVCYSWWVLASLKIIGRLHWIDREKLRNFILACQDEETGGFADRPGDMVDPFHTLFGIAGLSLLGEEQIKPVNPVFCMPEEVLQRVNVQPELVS
T1 sequence (Q92696 whole entry): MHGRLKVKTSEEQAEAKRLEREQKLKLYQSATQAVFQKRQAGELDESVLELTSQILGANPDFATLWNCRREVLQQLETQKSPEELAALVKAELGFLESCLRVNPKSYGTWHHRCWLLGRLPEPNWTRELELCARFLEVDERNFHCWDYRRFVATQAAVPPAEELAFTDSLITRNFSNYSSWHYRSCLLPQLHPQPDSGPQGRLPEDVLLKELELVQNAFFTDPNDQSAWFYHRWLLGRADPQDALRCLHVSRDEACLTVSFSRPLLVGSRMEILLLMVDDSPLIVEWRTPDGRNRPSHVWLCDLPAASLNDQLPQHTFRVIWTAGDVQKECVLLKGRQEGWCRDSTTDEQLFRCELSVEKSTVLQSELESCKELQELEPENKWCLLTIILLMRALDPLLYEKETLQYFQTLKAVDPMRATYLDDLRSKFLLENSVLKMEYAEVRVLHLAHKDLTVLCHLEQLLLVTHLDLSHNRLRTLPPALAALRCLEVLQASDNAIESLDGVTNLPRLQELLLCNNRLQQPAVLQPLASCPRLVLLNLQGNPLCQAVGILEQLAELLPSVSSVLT

[5] = Inhibition of rat recombinant geranylgeranyltransferase type I expressed in Escherichia coli assessed as reduction in geranylgeranylation of RhoA incubated for 30 mins in presence of [3H]GGPP by scintillation counting assay relative to control
[6] = target: Protein farnesyltransferase (Rattus norvegicus, UniProt Q02293+Q04631); assay: Inhibition of rat recombinant FTase alpha/beta expressed in Escherichia coli using K-Ras4B as a substrate as and [3H]farnesyl pyrophosphate incubated for 30 mins by scintillation counting assay
[7] = test system: CFPAC-1; assay: Antiproliferative activity against human CFPAC-1 cells assessed as inhibition of cell proliferation incubated for 72 hrs by CCK8 assay; assay type: functional, cell-based; settings: CFPAC-1, 72 h
[8] = test system: PANC-1; assay: Antiproliferative activity against human PANC1 cells assessed as inhibition of cell proliferation incubated for 72 hrs by CCK8 assay; assay type: functional, cell-based; settings: PANC-1, 72 h
[9] = test system: MDA-MB-231; assay: Antiproliferative activity against human MDA-MB-231 cells assessed as inhibition of cell proliferation incubated for 72 hrs by CCK8 assay; assay type: functional; settings: MDA-MB-231, 72 h
[10] = test system: ASPC1; assay: Antiproliferative activity against human AsPC1 cells assessed as inhibition of cell proliferation incubated for 6 days by CCK8 assay; assay type: functional, cell-based; settings: ASPC1, 144 h
[11] = test system: MIA PaCa-2; assay: Antiproliferative activity against human MIAPaCa2 cells assessed as inhibition of cell proliferation incubated for 72 hrs by CCK8 assay; assay type: functional, cell-based; settings: MIA PaCa-2, 72 h
[12] = test system: BT-474; assay: Antiproliferative activity against human BT474 cells assessed as inhibition of cell proliferation incubated for 72 hrs by CCK8 assay; assay type: functional, cell-based; settings: BT-474, 72 h
[13] = test system: Jurkat; assay: Antiproliferative activity against human Jurkat cells assessed as inhibition of cell proliferation incubated for 72 hrs by CCK8 assay; assay type: functional, cell-based
[14] = test system: Capan-2; assay: Antiproliferative activity against human Capan2 cells assessed as inhibition of cell proliferation incubated for 72 hrs by CCK8 assay; assay type: functional, cell-based; settings: Capan-2, 72 h
[15] = species on record: Rattus norvegicus; assay: Inhibition of rat recombinant geranylgeranyltransferase type I expressed in Escherichia coli assessed as residual enzyme activity for geranylgeranylation of RhoA at 50 uM incubated for 30 mins in presence of [3H]GGPP by scintillation counting assay relative to control
[16] = species on record: Rattus norvegicus; assay: Inhibition of rat recombinant geranylgeranyltransferase type I expressed in Escherichia coli assessed as residual enzyme activity for geranylgeranylation of K-Ras4B at 50 uM incubated for 30 mins in presence of [3H]GGPP by scintillation counting assay relative to control
[17] = target: Protein farnesyltransferase (Rattus norvegicus) (UniProt Q04631+Q02293); assay: Inhibition of rat recombinant FTase alpha/beta expressed in Escherichia coli at 50000 nM using K-Ras4B as a substrate as and [3H]farnesyl pyrophosphate incubated for 30 mins by scintillation counting assay
[18] = test system: K562; assay: Induction of cell cycle arrest in human K562 cells assessed as accumulation at G1 phase up to […] incubated for 48 hrs by flow cytometry; assay type: functional, cell-based
[19] = species on record: Rattus norvegicus; assay: Uncompetitive inhibition of rat recombinant geranylgeranyltransferase type I expressed in Escherichia coli assessed as reduction in geranylgeranylation of RhoA incubated for 30 mins in presence of varying level of [3H]GGPP and fixed RhoA levels by scintillation counting assay by Michaelis-Menten plot analysis
[20] = test system: HEK293; assay: Inhibition of geranylgeranyltransferase type I in HEK293 cells expressing Myc-HA-tagged Rheb-WT assessed as effect on unprenylated Rap1 accumulation at 3.1 to 25 uM incubated for 48 hrs by SDS-PAGE and immunoblot analysis; assay type: cell-based; settings: Homo sapiens
[21] = target: Geranylgeranyl transferase type-2 (Homo sapiens) (UniProt P53611+Q92696); assay: Inhibition of RabGGTase (unknown origin) at 50000 nM using YPTI as substrate protein and [3H]geranylgeranyl pyrophosphate incubated for 20 mins by scintillation counting assay; assay type: protein-complex assay
[22] = test system: HEK293; assay: Inhibition of geranylgeranyltransferase type I in HEK293 cells expressing Myc-HA-tagged Rheb-CVSL assessed as effect on unprenylated Rap1 accumulation at 12.5 to 50 uM incubated for 48 hrs by SDS-PAGE and immunoblot analysis; assay type: cell-based; settings: Homo sapiens
[23] = species on record: Rattus norvegicus; assay: Competitive inhibition of rat recombinant geranylgeranyltransferase type I expressed in Escherichia coli assessed as reduction in geranylgeranylation of RhoA incubated for 30 mins in presence of varying level of [3H]GGPP and fixed RhoA levels by scintillation counting assay relative to control
[24] = species on record: Rattus norvegicus; assay: Competitive inhibition of rat recombinant geranylgeranyltransferase type I expressed in Escherichia coli assessed as reduction in geranylgeranylation of RhoA incubated for 30 mins in presence of fixed level of [3H]GGPP and varying RhoA levels by scintillation counting assay relative to control

| SMILES | GI50 [3] | IC50 [4] | IC50 [5] | IC50 [6] | GI50 [13] | Activity [15] | Activity [16] | also measured |
| --- | --- | --- | --- | --- | --- | --- | --- | --- |
| CC(C)C[C@H](NC(=O)C1=CC[C@@H](c2cccc(Br)c2)N(S(=O)(=O)c2ccc(Cl)cc2)[C@H]1c1cccc(Cl)c1)C(N)=O | 7.06 µM | – | – | – | – | – | – | GI50 at 72 h [1]: 14.2 µM; GI50 [2]: 3.43 µM |
| CCCCCCS[C@H]1[C@@H](C(=O)O)[C@H](c2ccc(Br)cc2)N(S(=O)(=O)c2ccc(C)cc2)[C@@H]1CCCCCC | – | 2.2 µM | > 50 µM | > 100 µM | – | – | – | – |
| CCC[C@@H]1[C@@H](Sc2ccc(OC)cc2)[C@@H](C(=O)O)[C@H](c2ccc(Br)cc2)N1S(=O)(=O)c1ccc(C)cc1 | – | 4.5 µM | > 50 µM | > 100 µM | – | – | – | – |
| CC(C)(C)[C@@H]1C=C(C(=O)N[C@@H](Cc2ccccc2)C(N)=O)[C@H](c2ccc(Br)cc2)N1S(=O)(=O)c1ccccc1Cl | 5.21 to 9.18 µM | – | 6 to 16 µM | – | 4.74 to 8.75 µM | – | – | GI50 [7]: 6.16 to 6.3 µM; GI50 [8]: 9.05 to 12 µM; GI50 [9]: 4.43 to 11.3 µM; GI50 [10]: 12.2 to 16.8 µM; GI50 [11]: 6.15 to 12.1 µM; GI50 [12]: 9.08 to 9.9 µM; GI50 [14]: 8.32 to 10.7 µM |
| Cc1ccc(S(=O)(=O)N2[C@H](CC3CCCC3)[C@@H](SCCC(=O)OC(C)(C)C)[C@@H](C(=O)O)[C@@H]2c2cccc(Cl)c2)cc1 | – | 4.7 µM | 8.7 µM | > 100 µM | – | 5.6% | 20.6% | – |
| CC(C)(C)OC(=O)CCS[C@H]1[C@@H](C(=O)O)[C@H](c2ccc(Cl)cc2)N(S(=O)(=O)c2ccccc2)[C@@H]1CC1CCCC1 | – | 7 µM | 2.4 µM | > 100 µM | – | 9.7% | 30.4% | – |
| Cc1ccccc1S(=O)(=O)N1[C@@H](c2ccc(Cl)cc2)C(C(=O)N[C@@H](Cc2ccccc2)C(N)=O)=C[C@H]1C(C)CC(C)(C)C (some centres not stated) | 5.95 to 6.3 µM | – | 10 to 50 µM | – | 6.4 to 9.76 µM | – | – | GI50 at 72 h [1]: 9.16 to 11.3 µM; GI50 [8]: 8.6 to 8.85 µM; GI50 [10]: 8.61 to 11.4 µM; GI50 [11]: 6.7 to 7.17 µM; GI50 [2]: 3.1 to 4.71 µM; GI50 [12]: 10.1 to 10.8 µM; GI50 [14]: 7.5 to 10.5 µM |
| Cc1ccccc1S(=O)(=O)N1[C@@H](c2cccc(Cl)c2)C(C(=O)O)=CC[C@H]1c1ccc(Cl)cc1 | – | – | 0.31 to 0.313 µM | – | 20 µM | 7.5 to 24.8% | 14.7 to 41.7% | inhibition [17]: inactive; Activity [18]: Active; inhibition [19]: Active; inhibition [20]: Active; inhibition [21]: inactive; inhibition [22]: Active; inhibition [23]: inactive; inhibition [24]: Active; inhibition [3]: Active |
| CC(C)(C)OC(=O)CCS[C@H]1[C@@H](C(=O)O)[C@H](c2ccc(Cl)cc2)N(S(=O)(=O)c2ccc(Cl)cc2)[C@@H]1CC1CCCC1 | – | 3.1 µM | 8.9 µM | > 100 µM | – | 9.8% | 22.5% | – |
